Measurements taken from patent US8637511B2, “Aminopyrimidines useful as kinase inhibitors” (Vertex Pharmaceuticals Incorporated, priority 2005, dated 2014).
pIC50, pKi: −log10 of the molar value. Where “and” joins values, the source holds several entries; their conditions need not be identical. Equal entries are not always repeated. Where two headings read alike, the source gives them in different places.

Columns and labels:
Colo205 cells = test: Analysis of cell proliferation and viability; type: cell-based; conditions: Homo sapiens, read-out: IC50 value
Method: Colo205 cells were seeded in 96 well plates and serially diluted compound was added to the wells in duplicate. Control groups included untreated cells, the compound diluent (0.1% DMSO alone) and culture medium without cells.
To measure proliferation, 3 h prior to the end of the experiment 0.5 μCi of 3H thymidine was added to each well. Cells were then harvested and the incorporated radioactivity counted on a Wallac microplate beta-counter. Cell viability was assessed using Promega CellTiter 96AQ to measure MTS conversion. Dose response curves were calculated using either Prism 3.0 (GraphPad) or SoftMax Pro 4.3.1 LS (Molecular Devices) software.

Aurora-1 (Aurora B) = Aurora-1 (Aurora B) (Homo sapiens, UniProt Q96GD4); test: Aurora-1 (Aurora B) inhibition assay (radiometric); type: biochemical; conditions: read-out: Aurora B kinase Ki value
Method: An assay buffer solution was prepared which consisted of 25 mM HEPES (pH 7.5), 10 mM MgCl2, 0.1% BSA and 10% glycerol. […] To 22 μL of the Aurora-B solution, in a 96-well plate, was added 2 μl of a compound stock solution in DMSO and the mixture allowed to equilibrate for 10 minutes at 25° C. The enzyme reaction was initiated by the addition of 16 μl stock [γ-^33P]-ATP solution (˜20 nCi/μL) prepared in assay buffer, to a final assay concentration of 800 μM. The reaction was stopped after 3 hours by the addition of 16 μL 500 mM phosphoric acid and the levels of ^33P incorporation into the peptide substrate were determined by the following method.
A phosphocellulose 96-well plate (Millipore, Cat no. MAPHNOB50) was pre-treated with 100 μL of a 100 mM phosphoric acid prior to the addition of the enzyme reaction mixture (40 μL). The solution was left to soak on to the phosphocellulose membrane for 30 minutes and the plate subsequently washed four times with 200 μL of a 100 mM phosphoric acid. […] Levels of non-enzyme catalyzed background radioactivity were determined by adding 16 μL of the 500 mM phosphoric acid to control wells, containing all assay components (which acts to denature the enzyme), prior to the addition of the [γ-^33P]-ATP solution. Levels of enzyme catalyzed. ^33P incorporation were calculated by subtracting mean background counts from those measured at each inhibitor concentration. […] Ki values were calculated from initial rate data by non-linear regression using the Prism software package (Prism 3.0, Graphpad Software, San Diego, Calif.).

Aurora-2 (Aurora A) = molecular target: T1, Aurora-2 (Aurora A) (Homo sapiens, UniProt O14965); test: Aurora-2 (Aurora A) inhibition assay, coupled enzyme; type: biochemical; conditions: read-out: Aurora A kinase Ki value
T1 sequence (O14965 1-403): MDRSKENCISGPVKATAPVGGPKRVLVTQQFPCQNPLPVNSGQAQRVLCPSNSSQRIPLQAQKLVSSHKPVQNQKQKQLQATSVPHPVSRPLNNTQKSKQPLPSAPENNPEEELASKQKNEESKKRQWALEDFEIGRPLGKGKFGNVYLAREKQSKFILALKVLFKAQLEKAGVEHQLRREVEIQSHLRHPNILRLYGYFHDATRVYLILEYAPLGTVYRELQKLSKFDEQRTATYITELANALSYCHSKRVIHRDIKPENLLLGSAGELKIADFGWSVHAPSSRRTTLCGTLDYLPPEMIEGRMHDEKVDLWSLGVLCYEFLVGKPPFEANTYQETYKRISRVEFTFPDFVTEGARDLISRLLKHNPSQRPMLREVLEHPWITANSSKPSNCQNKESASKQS
Method: Assays were carried out in a mixture of 100 mM Hepes (pH7.5), 10 mM MgCl2, 1 mM DTT, 25 mM NaCl, 2.5 mM phosphoenolpyruvate, 300 μM NADH, 30 μg/ml pyruvate kinase and 10 μg/ml lactate dehydrogenase. […] Assays were carried out at 30° C. and in the presence of 40 nM Aurora-2.
The plate was preincubated for 10 minutes at 30° C. and the reaction initiated by addition of 10 μl of Aurora-2. Initial reaction rates were determined with a Molecular Devices SpectraMax Plus plate reader over a 10 minute time course. IC50 and Ki data were calculated from non-linear regression analysis using the Prism software package (GraphPad Prism version 3.0cx for Macintosh, GraphPad Software, San Diego Calif., USA).

[1] = COLO 205, Colo205 cells, incubated for 96 hours
[2] = COLO 205, Colo205 cells, incubated for 72 hours

Sequence of Aurora-1 (Aurora B) (Q96GD4 whole entry): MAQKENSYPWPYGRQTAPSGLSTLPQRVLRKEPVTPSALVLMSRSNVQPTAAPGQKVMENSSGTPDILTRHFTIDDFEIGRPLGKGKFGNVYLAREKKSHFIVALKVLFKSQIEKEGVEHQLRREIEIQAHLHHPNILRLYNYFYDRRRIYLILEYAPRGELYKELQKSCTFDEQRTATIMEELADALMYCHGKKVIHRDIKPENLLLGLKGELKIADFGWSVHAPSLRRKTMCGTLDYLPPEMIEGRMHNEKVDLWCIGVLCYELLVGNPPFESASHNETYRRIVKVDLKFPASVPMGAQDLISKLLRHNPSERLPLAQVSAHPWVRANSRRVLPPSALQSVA

Row | SMILES | pIC50 (Colo205 cells; [1]) | pKi (Aurora-1 (Aurora B)) | pIC50 (Colo205 cells; [2]) | pKi (Aurora-2 (Aurora A)) | pIC50 (Colo205 cells; COLO 205, 72 h) | pIC50 (Colo205 cells; COLO 205, 96 h)
1 | CCC(=O)Nc1ccc(Sc2nc(Nc3cc(C)n[nH]3)cc(N3CC(O)(CC(C)(C)C)C3)n2)cc1 [Compound 84] | ≥ 7.30 |  |  |  |  | 
2 | Cc1cc(Nc2cc(N3CC(F)(F)C3)nc(Sc3ccc(NC(=O)CC(F)(F)F)cc3)n2)[nH]n1 [Compound 130] |  | 7.30 to 8.00 and > 7.60 | 6.70 to 7.52 | 8.30 to 9.00 |  | 
3 | COc1cccc(C(=O)Nc2ccc(Sc3nc(Nc4cc(C)n[nH]4)cc(N4CCC4)n3)cc2)c1 [Compound 116] |  |  | < 6.70 |  |  | 
4 | CCC(=O)Nc1ccc(Sc2nc(Nc3cc(C)[nH]n3)cc(N3CC(F)(C4CC4)C3)n2)cc1 [Compound 147] |  |  |  | 8.30 to 9.00 | 6.70 to 7.52 | 
5 | Cc1cc(Nc2cc(N3CC(F)(C4CC4)C3)nc(Sc3ccc4nc(CC(F)(F)F)n(C)c4c3)n2)[nH]n1 [Compound 187] |  | ≥ 8.00 | ≥ 7.52 | ≥ 9.00 |  | 
6 | COC(=O)c1ccc(Sc2nc(Nc3cc(C4CC4)[nH]n3)cc(N3CC(O)(C4CC4)C3)n2)cc1 [Compound 106] | 6.00 to 7.30 | ≥ 8.00 |  | ≥ 9.00 |  | 
7 | CCN(C)C(=O)c1ccc(Sc2nc(Nc3cc(C)[nH]n3)cc(N3CC(O)(C4CC4)C3)n2)cc1 [Compound 125] |  | 5.70 to 7.30 | < 6.70 | 8.30 to 9.00 |  | 
8 | COC1(C2CC2)CN(c2cc(Nc3cc(C)[nH]n3)nc(Sc3ccc(NC(=O)C4CC4)cc3)n2)C1 [Compound 118] |  | ≥ 8.00 | ≥ 7.52 | ≥ 9.00 |  | 
9 | Cc1cc(Nc2cc(N3CCC3)nc(Sc3ccc(NC(=O)c4sc(C)nc4C)cc3)n2)n[nH]1 [Compound 41] | 6.00 to 7.30 | 5.70 to 7.30 |  | 6.70 to 8.30 |  | 
10 | CCC1(F)CN(c2cc(Nc3cc(C)n[nH]3)nc(Sc3ccc(NC(=O)CC(F)(F)F)cc3)n2)C1 [Compound 196] |  | ≥ 8.00 | ≥ 7.52 | ≥ 9.00 |  | 
11 | CCOc1ccc(Sc2nc(Nc3cc(C)n[nH]3)cc(N3CC(C(=O)N4CCCC4)C3)n2)cc1 [Compound 141] |  | 5.70 to 7.30 | < 6.70 | 8.30 to 9.00 |  | 
12 | CCC(=O)Nc1ccc(Sc2nc(Nc3cc(C)n[nH]3)cc(N3CC(O)(c4ccccc4)C3)n2)cc1 [Compound 86] | 6.00 to 7.30 | ≥ 8.00 |  | ≥ 9.00 |  | 
13 | Cc1cc(Nc2cc(N3CCC3)nc(Sc3ccc(NC(=O)c4ccccc4C(F)F)cc3)n2)[nH]n1 [Compound 120] |  |  | < 6.70 |  |  | 
14 | Cc1cc(Nc2cc(N3CCC3)nc(Sc3ccc(-n4ccccc4=O)cc3)n2)[nH]n1 [Compound 47] | < 6.00 | 5.70 to 7.30 |  | 6.70 to 8.30 |  | 
15 | Cc1cc(Nc2cc(N3CCC3)nc(Sc3ccc(NC(=O)c4cccc(Cl)c4Cl)cc3)n2)n[nH]1 [Compound 42] | 6.00 to 7.30 |  |  |  |  | 
16 | Cc1cc(Nc2cc(N3CCC3)nc(Sc3ccc(NC(=O)c4ncccc4C)cc3)n2)[nH]n1 [Compound 200] |  | 5.70 to 7.30 | < 6.70 | 6.70 to 8.30 |  | 
17 | CC(=O)Nc1ccc(Nc2nc(Nc3cc(C)n[nH]3)cc(N3CC(F)(C4CC4)C3)n2)cc1 [Compound 201] | 6.00 to 7.30 | 5.70 to 7.30 |  | 6.70 to 8.30 |  | 
18 | CCC(=O)Nc1ccc(Sc2nc(Nc3cc(C)n[nH]3)cc(N3CC(O)(C4CCCCC4)C3)n2)cc1 [Compound 101] | ≥ 7.30 | ≥ 8.00 |  | ≥ 9.00 |  | 

Row | SMILES | pIC50 (Colo205 cells; [1]) | pKi (Aurora-1 (Aurora B)) | pIC50 (Colo205 cells; [2]) | pKi (Aurora-2 (Aurora A)) | pIC50 (Colo205 cells; COLO 205, 72 h) | pIC50 (Colo205 cells; COLO 205, 96 h)
19 | Cc1cc(Nc2cc(N3CCC3)nc(Sc3ccc(NC(=O)c4cccnc4C)cc3)n2)[nH]n1 [Compound 63] | < 6.00 | 7.30 to 8.00 |  | 6.70 to 8.30 |  | 
20 | CCC(=O)Nc1ccc(Sc2nc(Nc3cc(C)n[nH]3)cc(N3CC(O)(c4ccccc4C)C3)n2)cc1 [Compound 93] | 6.00 to 7.30 | 5.70 to 7.30 |  | ≥ 9.00 |  | 
21 | CCC(Nc1ccc(Sc2nc(Nc3cc(C)n[nH]3)cc(N3CC(O)(C4CC4)C3)n2)cc1)C(F)(F)F (stereo not shown) [Compound 136] |  | 5.70 to 7.30 | < 6.70 | ≥ 9.00 |  | 
22 | Cc1cc(Nc2cc(N3CCC3)nc(Sc3ccc(NC(=O)c4cccc(CN5CCC5)c4)cc3)n2)[nH]n1 [Compound 140] | 6.00 to 7.30 | 5.70 to 7.30 |  |  |  | 
23 | Cc1cc(Nc2cc(N3CC(F)(C4CC4)C3)nc(Sc3ccc(NC(=O)C4(C(F)(F)F)CC4)cc3)n2)[nH]n1 [Compound 143] |  |  |  |  | ≥ 7.52 | 
24 | Cc1cc(Nc2cc(N3CC(N4CCCC4)C3)nc(Sc3ccc4nc(C(F)(F)F)n(C)c4c3)n2)[nH]n1 [Compound 176] |  | 7.30 to 8.00 and > 7.60 | ≥ 7.52 |  |  | 
25 | Cc1cc(Nc2cc(NCC3(C)COC3)nc(Sc3ccc(NC(=O)c4ccccc4Cl)cc3)n2)[nH]n1 [Compound 208] |  | ≥ 8.00 | 6.70 to 7.52 | ≥ 9.00 |  | 
26 | Cc1cc(Nc2cc(N3CC4(CCCO4)C3)nc(Sc3ccc(NC(=O)C4CC4)cc3)n2)[nH]n1 [Compound 123] |  | ≥ 8.00 | 6.70 to 7.52 | 8.30 to 9.00 |  | 
27 | CCCCOC1(C2CC2)CN(c2cc(Nc3cc(C)n[nH]3)nc(Sc3ccc(NC(=O)C4CC4)cc3)n2)C1 [Compound 111] | ≥ 7.30 | ≥ 8.00 |  | ≥ 9.00 |  | 
28 | Cc1cc(Nc2cc(N3CC(O)(C4CC4)C3)nc(Sc3ccc4nc(C)ccc4c3)n2)[nH]n1 [Compound 153] | ≥ 7.30 | ≥ 8.00 |  | ≥ 9.00 |  | 
29 | Cc1cc(Nc2cc(N3CCC3)nc(Sc3ccc(NC(=O)c4ccccc4Cl)nc3)n2)[nH]n1 [Compound 207] |  |  | < 6.70 | 8.30 to 9.00 |  | 
30 | Cc1cc(Nc2cc(N3CC(F)(C4CC4)C3)nc(Sc3ccc(NC(=O)CCC(F)(F)F)cc3)n2)[nH]n1 [Compound 157] |  |  |  |  | ≥ 7.52 | ≥ 7.30
31 | CCC(=O)Nc1ccc(Sc2nc(Nc3cc(C)n[nH]3)cc(N3CC(O)(CC)C3)n2)cc1 [Compound 98] | 6.00 to 7.30 |  |  |  |  | 
32 | CSc1ccccc1C(=O)Nc1ccc(Sc2nc(Nc3cc(C)[nH]n3)cc(N3CCC3)n2)cc1 [Compound 165] | 6.00 to 7.30 |  |  |  |  | 
33 | Cc1cc(Nc2cc(N3CC(F)(C4CC4)C3)nc(Sc3ccc(N)cc3)n2)[nH]n1 [Compound 174] |  |  | < 6.70 |  |  | 
34 | Cc1cc(Nc2cc(N3CCC3)nc(Sc3ccc(NC(=O)c4cc(F)ccc4F)cc3)n2)n[nH]1 [Compound 45] | 6.00 to 7.30 | 7.30 to 8.00 |  |  |  | 
35 | Cc1cc(Nc2cc(C(=O)N3CCC3)nc(Sc3ccc(NC(=O)c4ccccc4Cl)cc3)n2)n[nH]1 [Compound 62] | < 6.00 | 5.70 to 7.30 |  |  |  | 
